This is an account of results in PMC11725581, “Developing novel Lin28 inhibitors by computer aided drug design” (Cell Death Discovery, 2025).

Entries after “also recorded” stand apart in the source; their conditions may differ.

The subject of assay [1] is Lin28a-positive IGROV-1 cells. Kind of assay: Cell proliferation (Incucyte), IGROV-1 cells. The class given is cell-based.
A further assay deals with T1, Lin28b ZKD (Homo sapiens, UniProt Q6ZN17).
T1 sequence (Q6ZN17 127-166 limits assumed): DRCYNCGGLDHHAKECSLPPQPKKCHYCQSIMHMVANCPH
Briefly: EMSA, Lin28b ZKD:pre-let-7d complex formation. The conditions noted are these: 1 μM Lin28 ZKD, 10 nM IRDye800-labeled pre-let-7d probe. The class given is binding. Here is the method: We next validated the newly developed compounds using EMSA, a non-florescent-based assay to detect Lin28b ZKD:pre-let-7 complex formation. Similar to the FP assays, we first optimized the experimental conditions by titrating: (1) IRDye800-labeled pre-let-7d RNA probe, (2) Lin28b ZKD protein, and (3) non-labeled pre-let-7 probe as a competitor (Fig. 2C). For the validation experiments, 1 μM Lin28 ZKD and 10 nM of IRDye800-labeled pre-let-7d probe were mixed with each candidate compound. Compounds C1632 and Ln15 were used as control Lin28 inhibitors, respectively. […] Regardless, we use these two biochemical assays to shortlist the most promising compounds for further characterization. […] While our inhibitors directly target the Lin28 ZKD, it is unclear whether C1632 may bind to domains other than the ZKD or allosterically disrupt Lin28’s capacity to bind its RNA substrates.
EMSA followed the standard protocols we published. An IRDye800CWN-labeled pre-Let-7d RNA probe (5’-IRD800CWN-[…]-3’) was purchased from IDT (Coralville, IA, USA). Lin28a or Lin28b proteins were incubated with 300 nM of probe in a standard 20 uL EMSA reaction in a reaction buffer containing 20 mM HEPES-NaOH, pH 7.4, 2 mM DTT, 3 mM MgCl2, 0.05% NP-40, protease inhibitors, and 0.1 ug poly[dI:dC]. After incubation for 30 min at 37 °C, reactions were loaded onto 4% non-denatured polyacrylamide gel in 0.5× TBE buffer. The RNA oligo bands were visualized by using the Li-Cor Odyssey 9120 Infrared Imaging System.
(In general: Mobility shift assays separate free from complexed probe on a gel.)

A further assay deals with DuNE cells. Briefly: Colony formation assay, DuNE cells. The conditions noted are these: 14 days, vs vehicle (~50 colonies). Type of assay: cell-based. The text has this: CSCs have characteristic tumorigenic, self-renewal, and differentiation properties. The self-renewal ability is hijacked by CSCs that makes them both tumorigenic and capable of sustaining long-term tumor growth, which can be evaluated by 3D spheroid and colony formation assays. We established a DuNE spheroid model in which DuNE cells formed 3D spheroids in 96-well plates (Figure S3). By integrating this 3D culture with the Incucyte live-cell imaging system, we quantified the sizes of the spheroid growth over 0–6 days to generate a spheroid growth curve. Using this model system, we treated the DuNE spheroids with increasing doses (0–100 μM) of C1632, Ln15, and Ln268 for 0–6 days. […] In addition, classic colony formation assays were used to measure the stemness in the DuNE model. Colony formation counts, which were ~50 under vehicle treatment after 14 days, decreased by 22% in C1632-treated plates, and by 75% and 96% in the Ln15 and Ln268 treated plates, respectively (Fig. 4D).
In the colony formation assays, cancer cells were seeded in 0.7% soft agar in a 6-well plate, with a 1% soft agar bottom base coating. Cells were allowed to grow for 14 days to form colonies. Colonies were stained with crystal violet and imaged by stitching 5X field images together to capture the entire well (Zeiss light microscope [Carl Zeiss]). Colony numbers were counted according to their diameters (100-300um or >300um). Three independent biological replicates were performed for all the assays.

For assay [2], the system named is Du145 (Lin28b-negative line). Briefly: Cell proliferation (Incucyte), Du145 cells. The class given is cell-based. The text has this:
(§1) To further evaluate whether the suppressive effects of Ln268 are specific to Lin28-positive cancer cells, we compared cell growth rates of DuNE (Lin28b-positive line) and Du145 (Lin28b-negative line), both of which are Lin28a-negative. DuNE has the same genomic background with Du145 except for the transduction of the SRRM4 gene. […] Furthermore, Ln268 had no impact on the cell growth of DuNE(KO) cells, in which the Lin28b gene was knocked out by CRISPR (Fig. 5C). […] We also tested several ovarian and endometrial cancer cell lines with different Lin28a and Lin28b expression profiles (Fig. 5E).

Another assay deals with HEC50 cells. Briefly: Cell proliferation (Incucyte), HEC50. Type of assay: cell-based. The following applies: Lin28a/Lin28b-negative.
Text: as §1

The test system of assay [3] is DuNE(KO) cells (Lin28b gene knocked out by CRISPR). Briefly: Cell proliferation, DuNE(KO) cells. The class given is cell-based. The conditions noted are these: Lin28b knockout, 72 h.
Text: as §1

The test system of assay [4] is Lin28b-mediated SG formation in DuNE cells. Briefly: Stress granule (SG) formation induced by ARS, confocal microscopy. Type of assay: cell-based. The text has this: To assess whether Lin28 inhibitors can inhibit SG formation in cancer cells, we induced SGs in DuNE cells using ARS. These cells were co-treated with either vehicle, C1632, Ln15, or Ln268 (Fig. 6F). As a positive control, RNase was also included since it is known to prevent Lin28-mediated SG formation. Under vehicle treatment condition, Lin28b was primarily localized within SGs; however, in the presence of Lin28 inhibitors, its subcellular distribution became more diffuse, extending beyond SGs. SG formation involves a dynamic process in which initial smaller granules coalesce to form larger, mature SGs through phase separation (Fig. 6F).
Cells were fixed with 4% paraformaldehyde, treated in 0.25% Triton X-100 for 15 mins, and mounted with DAPI staining mount (Vector Labs; Burlingame, USA). Cell images were captured by confocal microscopy at 63X magnification (Zeiss; Germany).

The subject of the next assay is VOA1066 cells. Briefly: Cell proliferation (Incucyte), VOA1066. The class given is cell-based.
Text: as §1

The term IC50 denotes the concentration needed to halve the response being measured. The low end stands for greater potency in that assay, the high end for weaker potency in that assay. Consider `O=c1[nH]c(Nc2ccc(F)cc2O)cs1` [Ln268], for which, in assay [1], the “cell proliferation, IGROV-1” value is reported as “strongly inhibited cell proliferation; also recorded: strong suppressive effects”. The “inhibition of Lin28b ZKD:pre-let-7d complex formation (EMSA)” value at Lin28b ZKD is “capable of inhibiting Lin28:pre-let-7d complex formation in a dose-dependent manner”. Also, the “decrease of colony formation counts” value with DuNE cells was found to be 96%. For the same compound, the “effect on Du145 cell growth and cell morphology” value in assay [2] was “no impact”. In the assay on HEC50 cells, the “effect on growth of HEC50 cells” value is listed as “no or minimal impacts”. For the same compound, the “effect on cell growth of DuNE(KO) cells” value in assay [3] was “no impact”. In assay [4], the “effect on aggregation of smaller granules (<20 pixels) into larger SGs (>50 pixels)” value was “the most suppressive effect”. Moreover, in the assay on VOA1066 cells (Lin28a/Lin28b-positive), the “effect on growth of VOA1066 cells” value is listed as “suppressed the growth”. Besides, the IC50 in the assay on VOA1066 cells (cells express both Lin28a and Lin28b at relatively high levels) was found to be 400 nM.
